In patent publication US20190308988A1, “OPIOID RECEPTOR ANTAGONIST PRODRUGS” (Nirsum Laboratories, Inc., priority 2017, published 2019):
Values after ≈ are worked out from the molar mass of the structure shown.

Test: Solubility determination in oil (Table 10)
Settings: for solubility at 24 h: 25 °C, Obs. Temp. 25 °C; for solubility at 24 h / solubility / solubility thermodynamic: thermodynamic from solid; for solubility / solubility thermodynamic: 40 °C; for solubility thermodynamic: water, Equilibrium solubility: Water
Experimental: A known amount of test substance (˜40 mg) was weighed into the vial, 100 μL of oil was added and heated to 60° C. and then system was slurried to reach equilibrium. […] Extra oil was added into the vial once compound precipitated out and then the system was re-equilibrated at 1000 rpm at room temperature (25° C.). Final concentration was determined by HPLC method as described below in Table 6a and 6b.

[1] = Heating Temp. 60 °C, Obs. Temp. 40 °C
[2] = oil or lipid, Approximate Solubility in Excipient: Cottonseed oil, Heating Temp. 60 °C
[3] = oil or lipid, Approximate Solubility in Excipient: Sesame oil, Heating Temp. 60 °C
[4] = oil or lipid, Approximate Solubility in Excipient: Cottonseed oil, Heating Temp. 40 °C, Obs. Temp. 40 °C
[5] = oil or lipid, Approximate Solubility in Excipient: Cottonseed oil, Heating Temp. 60 °C, Obs. Temp. 40 °C
[6] = oil or lipid, Approximate Solubility in Excipient: Sesame oil, Heating Temp. 40 °C, Obs. Temp. 40 °C
[7] = oil or lipid, Approximate Solubility in Excipient: Sesame oil, Heating Temp. 60 °C, Obs. Temp. 40 °C
[8] = organic solvent or mixture, Approximate Solubility in Excipient: Ethanol, Heating Temp. 40 °C, Obs. Temp. 40 °C
[9] = Heating Temp. 40 °C, Obs. Temp. 40 °C
[10] = oil or lipid, Approximate Solubility in Excipient: Castor oil, Heating Temp. 40 °C, Obs. Temp. 40 °C

Question: For `C=C1CC[C@@]2(O)[C@H]3Cc4ccc(O)c5c4[C@@]2(CCN3CC2CC2)[C@H]1O5` [61 (Nalmefene)], which “Approximate Solubility in Excipient: Cottonseed oil” value [1] is on record?
Answer: Its value is <25.0 mg/mL.

Question: And the “Approximate Solubility in Excipient: Ethanol” value [1]?
Answer: The value was 102 to 137 mg/mL.

Question: What about the “Approximate Solubility in Excipient: Sesame oil” value [1] of the same compound?
Answer: Its value is <25.5 mg/mL.

Question: What about the “Equilibrium solubility: Water” value [1] of the same compound?
Answer: Its value is 0.025 mg/mL.

Question: With `C=C1CC[C@@]2(O)C3Cc4ccc(OC(=O)CCCCCCCCCCCCCCCCC)c5c4[C@@]2(CCN3CC2CC2)[C@H]1O5` [Compound 12, (4aS,7aS,12bS)-3-(cyclopropylmethyl)-4a-hydroxy-7-methylene-2,3,4,4a,5,6,7,7a-octahydro-1H-4,12-methanobenzofuro[3,2-e]isoquinolin-9-yl stearate] as the compound, how does the solubility at 24 h [2] read?
Answer: Its solubility at 24 h is < 51 mg/mL.

Question: What about the solubility at 24 h [3] of the same compound?
Answer: Its solubility at 24 h is < 50 mg/mL.

Question: And the solubility [4]?
Answer: Its solubility is 100 to 120 mg/mL (≈ 165 to 198 mM).

Question: What about the solubility [5] of the same compound?
Answer: The solubility was > 398 mg/mL.

Question: And the solubility [6]?
Answer: The solubility was 70 to 95 mg/mL (≈ 116 to 157 mM).

Question: And the solubility [7]?
Answer: The solubility was > 411 mg/mL.

Question: And the solubility [8]?
Answer: Its solubility is 65 to 75 mg/mL (≈ 107 to 124 mM).

Question: And the solubility thermodynamic [9]?
Answer: The solubility thermodynamic was 0.043 mg/mL (≈ 0.071 mM).

Question: Which results are given for `C=C1CC[C@@]2(O)C3Cc4ccc(OC(=O)CCCCCCCCCCC/C=C\CCCCCCCC)c5c4[C@@]2(CCN3CC2CC2)[C@H]1O5` [Compound 13, (4aS,7aS,12bS)-3-(cyclopropylmethyl)-4a-hydroxy-7-methylene-2,3,4,4a,5,6,7,7a-octahydro-1H-4,12-methanobenzofuro[3,2-e]isoquinolin-9-yl (Z)-docos-13-enoate]?
Answer: solubility at 24 h [2]: < 50 mg/mL; solubility at 24 h [3]: 91 to 121 mg/mL (≈ 138 to 183 mM); solubility [4]: > 381 mg/mL; solubility [6]: > 406 mg/mL; solubility [8]: > 214 mg/mL; solubility thermodynamic [9]: 0.002 mg/mL (≈ 0.00303 mM)

Question: With `C=C1CC[C@@]2(O)C3Cc4ccc(OC(=O)OCCCCCCCC)c5c4[C@@]2(CCN3CC2CC2)[C@H]1O5` [Compound 17, (4aS,7aS,12bS)-3-(cyclopropylmethyl)-4a-hydroxy-7-methylene-2,3,4,4a,5,6,7,7a-octahydro-1H-4,12-methanobenzofuro[3,2-e]isoquinolin-9-yl octyl carbonate] as the compound, how does the solubility at 24 h [2] read?
Answer: The solubility at 24 h was > 408 mg/mL.

Question: And the solubility at 24 h [3]?
Answer: Its solubility at 24 h is > 487 mg/mL.

Question: What about the solubility [4] of the same compound?
Answer: The solubility was > 416 mg/mL.

Question: And the solubility [6]?
Answer: Its solubility is > 416 mg/mL.

Question: What about the solubility [8] of the same compound?
Answer: The solubility was > 209 mg/mL.

Question: What about the solubility thermodynamic [9] of the same compound?
Answer: The solubility thermodynamic was 0.0008 mg/mL (≈ 0.00161 mM).

Question: Which results are given for `C=C1CC[C@@]2(O)C3Cc4ccc(OC(=O)OCCCCCCCCCC)c5c4[C@@]2(CCN3CC2CC2)[C@H]1O5` [Compound 18, (4aS,7aS,12bS)-3-(cyclopropylmethyl)-4a-hydroxy-7-methylene-2,3,4,4a,5,6,7,7a-octahydro-1H-4,12-methanobenzofuro[3,2-e]isoquinolin-9-yl decyl carbonate]?
Answer: solubility at 24 h [2]: > 400 mg/mL; solubility at 24 h [3]: > 402 mg/mL; solubility [4]: > 403 mg/mL; solubility [6]: > 403 mg/mL; solubility [8]: > 209 mg/mL; solubility thermodynamic [9]: < 0.0002 mg/mL

Question: What does the source list for `C=C1CC[C@@]2(O)C3Cc4ccc(OC(=O)CCCCCCC/C=C\C/C=C\C/C=C\CC)c5c4[C@@]2(CCN3CC2CC2)[C@H]1O5` [Compound 20, (4aS,7aS,12bS)-3-(cyclopropylmethyl)-4a-hydroxy-7-methylene-2,3,4,4a,5,6,7,7a-octahydro-1H-4,12-methanobenzofuro[3,2-e]isoquinolin-9-yl (9Z,12Z,15Z)-octadeca-9,12,15-trienoate]?
Answer: solubility at 24 h [2]: 68 to 82 mg/mL (≈ 113 to 137 mM); solubility at 24 h [3]: 80 to 100 mg/mL (≈ 133 to 167 mM); solubility [4]: > 414 mg/mL; solubility [6]: > 406 mg/mL; solubility [8]: 157 to 197 mg/mL (≈ 262 to 328 mM); solubility thermodynamic [9]: < 0.0002 mg/mL

Question: Which solubility at 24 h [2] does the source give for `CCCCCCCC/C=C\CCCCCCCCCCCC(=O)Oc1ccc2c3c1O[C@H]1C(=O)CC[C@@]4(O)C(C2)N(CC2CC2)CC[C@]314` [Compound 22, (4aS,7aR,12bS)-3-(cyclopropylmethyl)-4a-hydroxy-7-oxo-2,3,4,4a,5,6,7,7a-octahydro-1H-4,12-methanobenzofuro[3,2-e]isoquinolin-9-yl (Z)-docos-13-enoate] here?
Answer: The solubility at 24 h was 67 to 80 mg/mL (≈ 101 to 121 mM).

Question: What about the solubility at 24 h [3] of the same compound?
Answer: Its solubility at 24 h is 67 to 80 mg/mL (≈ 101 to 121 mM).

Question: And the solubility [5]?
Answer: The solubility was > 406 mg/mL.

Question: What about the solubility [7] of the same compound?
Answer: Its solubility is > 402 mg/mL.

Question: What about the solubility (organic solvent or mixture, Approximate Solubility in Excipient: Ethanol, Heating Temp. 60 °C, Obs. Temp. 40 °C) of the same compound?
Answer: Its solubility is > 398 mg/mL.

Question: And the solubility thermodynamic [1]?
Answer: Its solubility thermodynamic is 0.0314 mg/mL (≈ 0.0474 mM).

Question: For `CCCCCCCC/C=C/CCCCCCCC(=O)OCOc1ccc2c3c1O[C@H]1C(=O)CC[C@@]4(O)C(C2)N(CC2CC2)CC[C@]314` [Compound 26, (((4aS,7aR,12bS)-3-(cyclopropylmethyl)-4a-hydroxy-7-oxo-2,3,4,4a,5,6,7,7a-octahydro-1H-4,12-methanobenzofuro[3,2-e]isoquinolin-9-yl)oxy)methyl (E)-octadec-9-enoate], which solubility at 24 h [2] is on record?
Answer: The solubility at 24 h was 204 to 239 mg/mL (≈ 321 to 376 mM).

Question: And the solubility at 24 h [3]?
Answer: The solubility at 24 h was < 354 mg/mL.

Question: And the solubility thermodynamic [9]?
Answer: Its solubility thermodynamic is < 0.001 mg/mL.

Question: For `CCCCCCCCCCCCCCOC(=O)OCOc1ccc2c3c1O[C@H]1C(=O)CC[C@@]4(O)C(C2)N(CC2CC2)CC[C@]314` [Compound 27, (((4aS,7aR,12bS)-3-(cyclopropylmethyl)-4a-hydroxy-7-oxo-2,3,4,4a,5,6,7,7a-octahydro-1H-4,12-methanobenzofuro[3,2-e]isoquinolin-9-yl)oxy)methyl tetradecyl carbonate], which solubility at 24 h [2] is on record?
Answer: Its solubility at 24 h is > 395 mg/mL.

Question: What about the solubility at 24 h [3] of the same compound?
Answer: Its solubility at 24 h is > 399 mg/mL.

Question: What about the solubility thermodynamic [9] of the same compound?
Answer: Its solubility thermodynamic is < 0.001 mg/mL.

Question: Which solubility at 24 h [2] does the source give for `C=C1CC[C@@]2(O)C3Cc4ccc(OC(=O)OCCCCCCCCCCCCCCCCCCCC)c5c4[C@@]2(CCN3CC2CC2)[C@H]1O5` [Compound 28, (4aS,7aS,12bS)-3-(cyclopropylmethyl)-4a-hydroxy-7-methylene-2,3,4,4a,5,6,7,7a-octahydro-1H-4,12-methanobenzofuro[3,2-e]isoquinolin-9-yl icosyl carbonate] here?
Answer: The solubility at 24 h was < 50.2 mg/mL.

Question: What about the solubility at 24 h [3] of the same compound?
Answer: Its solubility at 24 h is < 50.6 mg/mL.

Question: And the solubility thermodynamic [9]?
Answer: The solubility thermodynamic was < 0.001 mg/mL.

Question: Which results are given for `C=C1CC[C@@]2(O)C3Cc4ccc(OC(=O)OCCCCCCCCCCCCCCCCCC)c5c4[C@@]2(CCN3CC2CC2)[C@H]1O5` [Compound 33, (4aS,7aS,12bS)-3-(cyclopropylmethyl)-4a-hydroxy-7-methylene-2,3,4,4a,5,6,7,7a-octahydro-1H-4,12-methanobenzofuro[3,2-e]isoquinolin-9-yl octadecyl carbonate]?
Answer: solubility at 24 h [2]: < 50 mg/mL; solubility at 24 h [3]: < 51 mg/mL; solubility thermodynamic [9]: < 0.001 mg/mL

Question: Which solubility at 24 h [2] does the source give for `C=C1CC[C@@]2(O)C3Cc4ccc(OC(=O)CCCCCCC/C=C\CCCCCCCC)c5c4[C@@]2(CCN3CC2CC2)[C@H]1O5` [Compound 36, (4aS,7aS,12bS)-3-(cyclopropylmethyl)-4a-hydroxy-7-methylene-2,3,4,4a,5,6,7,7a-octahydro-1H-4,12-methanobenzofuro[3,2-e]isoquinolin-9-yl oleate] here?
Answer: The solubility at 24 h was > 407 mg/mL.

Question: What about the solubility at 24 h [3] of the same compound?
Answer: Its solubility at 24 h is > 408 mg/mL.

Question: And the solubility [10]?
Answer: Its solubility is > 217 mg/mL.

Question: And the solubility [4]?
Answer: The solubility was > 419 mg/mL.

Question: And the solubility [6]?
Answer: The solubility was > 412 mg/mL.

Question: And the solubility [8]?
Answer: Its solubility is 20 to 30 mg/mL (≈ 33.1 to 49.7 mM).

Question: What about the solubility thermodynamic [9] of the same compound?
Answer: Its solubility thermodynamic is 0.005 mg/mL (≈ 0.00828 mM).

Question: With `C=C1CC[C@@]2(O)C3Cc4ccc(OC(=O)CCCCCCC/C=C\C/C=C\CCCCC)c5c4[C@@]2(CCN3CC2CC2)[C@H]1O5` [Compound 37, (4aS,7aS,12bS)-3-(cyclopropylmethyl)-4a-hydroxy-7-methylene-2,3,4,4a,5,6,7,7a-octahydro-1H-4,12-methanobenzofuro[3,2-e]isoquinolin-9-yl (9Z,12Z)-octadeca-9,12-dienoate] as the compound, how does the solubility at 24 h [2] read?
Answer: The solubility at 24 h was 68.5 to 82 mg/mL (≈ 114 to 136 mM).

Question: What about the solubility at 24 h [3] of the same compound?
Answer: The solubility at 24 h was 80 to 102 mg/mL (≈ 133 to 169 mM).

Question: And the solubility [10]?
Answer: Its solubility is > 226 mg/mL.

Question: And the solubility [4]?
Answer: The solubility was > 405 mg/mL.

Question: And the solubility [6]?
Answer: Its solubility is > 408 mg/mL.

Question: And the solubility [8]?
Answer: The solubility was 75 to 90 mg/mL (≈ 125 to 150 mM).

Question: And the solubility thermodynamic [9]?
Answer: Its solubility thermodynamic is 0.002 mg/mL (≈ 0.00332 mM).

Question: What does the source list for `C=C1CC[C@@]2(O)C3Cc4ccc(OC(=O)CC(C)(C)C)c5c4[C@@]2(CCN3CC2CC2)[C@H]1O5` [Compound 38, (4aS,7aS,12bS)-3-(cyclopropylmethyl)-4a-hydroxy-7-methylene-2,3,4,4a,5,6,7,7a-octahydro-1H-4,12-methanobenzofuro[3,2-e]isoquinolin-9-yl 3,3-dimethylbutanoate]?
Answer: solubility [10]: > 248 mg/mL; solubility [4]: > 407 mg/mL; solubility [6]: 230 to 411 mg/mL (≈ 526 to 939 mM); solubility [8]: 160 to 200 mg/mL (≈ 366 to 457 mM); solubility thermodynamic [9]: 0.617 mg/mL (≈ 1.41 mM); solubility thermodynamic [1]: 0.21 mg/mL (≈ 0.48 mM)
